Laboratory results as given in PMC4496089, “Screening for FtsZ Dimerization Inhibitors Using Fluorescence Cross-Correlation Spectroscopy and Surface Resonance Plasmon Analysis” (PLoS ONE, 2015).
Values after ≈ are worked out from the molar mass of the structure shown. “Also recorded” adds a separate entry of the source. Read-outs that look alike come from different tables or passages of the source.

Legend:
[1] = system: S. aureus FtsZ (FtsZ^K175D_N-terminal-EGFP and FtsZ_C-terminal-mCherry); test: FCCS screening for inhibition of GTP-dependent head-to-tail dimerization of fragmented FtsZ; type: biochemical, Staphylococcus aureus; conditions: from FCCS binding ratio; chemical 20 or 100 μM, GTP 2 mM, 30 min; mean (SD), n = 3
Experimental: The purified FtsZ^K175D_N-terminal-EGFP and FtsZ_C-terminal-mCherry were mixed in 0.44–0.85 μM each in a buffer composed of 50 mM Tris-HCl [pH 8.0], 500 mM Na2SO4 and 5 mM MgCl2. Mixed samples were dispensed as 48.5 μL aliquots into a 384-well glass bottom microplate (Olympus) and a 0.5 μL aliquot of the chemical at a concentration of 2 or 10 mM was added to each well. The final concentration of the chemicals was 20 or 100 μM. After mixing, FCCS measurement was performed (premeasurement, data not shown). After premeasurement of FCCS, 1 μL of GTP (100 mM) was added to each well (final concentration: 2 mM). After mixing and 30 min incubation at room temperature, FCCS measurement was performed. Using samples purified on a different day, independent screening was performed 3 times.
The data acquired from FCCS were analyzed using ZEN software (Zeiss, Germany). The fluorescence autocorrelation functions from the green, G G (τ), and red channels, G R (τ), and the fluorescence cross-correlation functions, G C (τ) were calculated according to the normalized correlation function. GG(τ)=1+⟨δIG(t)⋅δIG(t+τ)⟩/⟨IG(t)⟩⋅⟨IG(t)⟩ (1) GR(τ)=1+⟨δIR(t)⋅δIR(t+τ)⟩/⟨IR(t)⟩⋅⟨IR(t)⟩ (2) GC(τ)=1+⟨δIG(t)⋅δIR(t+τ)⟩/⟨IG(t)⟩⋅⟨IR(t)⟩ (3) where τ denotes the time delay, I G is the fluorescent intensity of the green channel, and I R is the fluorescent intensity of the red channel. The acquired autocorrelations were fitted using a two-component model, and cross-correlation was fitted using a one-component model. G(τ)=1+1−Ftriplet+Ftripletexp(−τ/τtrplet)/N(1−Ftriplet)×((Ffast/1+τ/τfast)1/1+τ/s^2τfast+(Fslow/1+τ/τslow)1/1+τ/s^2τslow) (4) where F triplet is the average fraction of triplet state molecules (in the fitting of cross-correlation, assuming F triplet is 0), τ triplet is the triplet relaxation time, and F fast and F slow are the fractions of the fast and slow components, respectively. τ fast and τ slow are the diffusion times of the fast and slow components, respectively. In the fitting of G G (τ), τ fast was fixed in the range from 100 to 200 μs. In the fitting of G R (τ), τ fast was fixed in the range from 200 to 300 μs. N is the average number of fluorescent particles in the excitation-detection volume defined by radius w, z is half of the long axis of the confocal volume element, and s is the structural parameter representing the ratio s = z/w. The values of w i (i = G or R) are determined from the diffusion coefficients of the rhodamine 6G and Alexa Fluor 594 used as standard dyes, respectively.
The average number calculated from autocorrelation N G and N R and complex cross-correlated particles N C is given by NG=1/GG(0)−1 (5) NR=1/GR(0)−1 (6) NC=GC(0)−1/(GR(0)−1)⋅(GG(0)−1) (7)
The binding ratio (BR), which directly indicates the tendency of interaction between FtsZ^K175D_N-terminal-EGFP and FtsZ_C-terminal-mCherry, was defined by the following Eq (8). When a chemical has a higher inhibitory effect, BR should be lower. BR=NC/NG (8)
Moreover, inhibition % was calculated using the following Eq (9). The inhibition % should be higher when the chemical has a higher inhibitory effect. inhibition%=BRDMSO,GTP(+)−BRchemical,GTP(+)/BRDMSO,GTP(+)×100 (9) where BR DMSO,GTP(+) is the binding ratio in the presence of DMSO (vehicle) and GTP is the control value indicating no inhibition, BR chemical,GTP(+) is the binding ratio in the presence a chemical and GTP. Considering the background, Eq (9) can be shown as follows. inhibition%=(BRDMSO,GTP(+)−BRbackground)−(BRchemical,GTP(+)−BRbackground)/BRDMSO,GTP(+)−BRbackground×100=BRDMSO,GTP(+)−BRchemical,GTP(+)/BRDMSO,GTP(+)−BRbackground×100 (10) where BR background is the binding ratio of the background obtained in the absence of GTP.

[2] = system: S. aureus ATCC 29213 (MSSA); test: Antibiotic susceptibility test (broth microdilution MIC); type: cell-based, Staphylococcus aureus; conditions: for MIC: Staphylococcus aureus, read-out: Minimal inhibitory concentration
Experimental: (§1) Antimicrobial susceptibility testing was performed by broth microdilution in cation-adjusted Mueller–Hinton broth (CAMHB) according to the CLSI guidelines. Overnight culture was suspended in CAMHB, and the OD625 was measured using an Ultrospec 6300 pro spectrophotometer (GE Healthcare). The culture suspension was diluted to 0.01 of the OD625, and 5 μL of it was inoculated into test medium containing the test chemical. Then incubation was performed at 35°C for 16 to 20 hours. The final inoculum size corresponded to ca. 5 x 10^4 CFU per well, which corresponded to ca. 5 x 10^5 CFU/mL. The minimum inhibitory concentration (MIC) endpoint was defined as the lowest concentration of the test chemical that inhibited bacterial growth as detected by the unaided eye.

[3] = system: E. coli ATCC 25922; test: as above; type: cell-based; conditions: Escherichia coli
Experimental: as §1

[4] = system: E. faecium SR7917 (VRE); test: as above; type: cell-based; conditions: Enterococcus faecium, read-out: Minimal inhibitory concentration
Experimental: as §1

[5] = system: H. influenzae ATCC 10211; test: as above; type: cell-based; conditions: Haemophilus influenzae
Experimental: as §1

[6] = system: S. aureus SR3637 (MRSA); test: as above; type: cell-based; conditions: Staphylococcus aureus, read-out: Minimal inhibitory concentration
Experimental: as §1

[7] = system: E. faecalis ATCC 29212; test: as above; type: cell-based; conditions: Enterococcus faecalis
Experimental: as §1

[8] = system: S. pneumoniae Type I; test: as above; type: cell-based; conditions: Streptococcus pneumoniae, read-out: Minimal inhibitory concentration
Experimental: as §1

[9] = system: P. aeruginosa ATCC 27853; test: as above; type: cell-based; conditions: Pseudomonas aeruginosa
Experimental: as §1

[10] = system: E. faecium ATCC 19434; test: as above; type: cell-based; conditions: Enterococcus faecium
Experimental: as §1

[11] = system: K. pneumoniae ATCC 13883; test: as above; type: cell-based; conditions: Klebsiella pneumoniae
Experimental: as §1

[12] = system: E. faecalis SR7914 (VRE); test: as above; type: cell-based; conditions: Enterococcus faecalis, read-out: Minimal inhibitory concentration
Experimental: as §1

[13] = system: A. baumannii ATCC 19606; test: as above; type: cell-based; conditions: Acinetobacter baumannii
Experimental: as §1

[14] = system: panel of type strains of Gram-positive and Gram-negative bacterial pathogens; test: Antibiotic susceptibility test, summary over the whole panel; type: cell-based; conditions: MIC panel of Gram-positive and Gram-negative type strains
Experimental: as §1

[15] = S. aureus ATCC 29213 (MSSA), CAMHB, 35°C, 16 to 20 hours
[16] = ATCC25922, E. coli ATCC 25922, CAMHB, 35°C, 16 to 20 hours, read-out: Minimal inhibitory concentration
[17] = E. faecium SR7917 (VRE), CAMHB, 35°C, 16 to 20 hours
[18] = ATCC10211, H. influenzae ATCC 10211, CAMHB, 35°C, 16 to 20 hours, read-out: Minimal inhibitory concentration
[19] = S. aureus SR3637 (MRSA), CAMHB, 35°C, 16 to 20 hours
[20] = ATCC29212, E. faecalis ATCC 29212, CAMHB, 35°C, 16 to 20 hours, read-out: Minimal inhibitory concentration
[21] = S. pneumoniae Type I, CAMHB, 35°C, 16 to 20 hours
[22] = ATCC27853, P. aeruginosa ATCC 27853, CAMHB, 35°C, 16 to 20 hours, read-out: Minimal inhibitory concentration
[23] = ATCC19434, E. faecium ATCC 19434, CAMHB, 35°C, 16 to 20 hours, read-out: Minimal inhibitory concentration
[24] = ATCC13883, K. pneumoniae ATCC 13883, CAMHB, 35°C, 16 to 20 hours, read-out: Minimal inhibitory concentration
[25] = E. faecalis SR7914 (VRE), CAMHB, 35°C, 16 to 20 hours
[26] = ATCC19606, A. baumannii ATCC 19606, CAMHB, 35°C, 16 to 20 hours, read-out: Minimal inhibitory concentration

| Compound | inhibition % [1] | MIC [2, 15] [mg/L] | MIC [3, 16] [mg/L] | MIC [4, 17] [mg/L] | MIC [5, 18] [mg/L] | MIC [6, 19] [mg/L] | MIC [7, 20] [mg/L] | MIC [8, 21] [mg/L] | MIC [9, 22] [mg/L] | MIC [10, 23] [mg/L] | MIC [11, 24] [mg/L] | MIC [12, 25] [mg/L] | MIC [13, 26] [mg/L] | other results |
| --- | --- | --- | --- | --- | --- | --- | --- | --- | --- | --- | --- | --- | --- | --- |
| O=C(c1cccc(-n2cnnc2)c1)N1CC2CCC(Cc3cccc(Cl)c3)C2C1 (centres unmarked) [Chemical #5] | 46.7 (11.4) % | > 64 | > 64 | > 64 | > 64 | > 64 | > 64 | > 64 | > 64 | > 64 | > 64 | > 64 | > 64 |  |
| CS(=O)(=O)NC1=NN2C(=NC(c3ccccc3)=CC2c2ccccc2Cl)N1 (centres unmarked) [Chemical #6] | 40.9 (1.2) % | > 64 | > 64 | > 64 | > 64 | > 64 | > 64 | > 64 | > 64 | > 64 | > 64 | > 64 | > 64 |  |
| COc1ccc(C2C=C(c3ccc(Br)cc3)N=C3NC(NS(C)(=O)=O)=NN32)cc1 (centres unmarked) [Chemical #1] | 88.6 (6.8) % | > 64 | > 64 | > 64 | > 64 | > 64 | > 64 | > 64 | > 64 | > 64 | > 64 | > 64 | > 64 |  |
| O=C(NNC(=S)NC1CC2CCC1C2)c1cc2ccccc2cc1O (centres unmarked) [Chemical #4] | 64.4 (5.8) % | > 32 | > 32 | > 32 | > 32 | > 32 | > 32 | > 32 | > 32 | > 32 | > 32 | > 32 | > 32 |  |
| COCCN(CCOC)P1(=O)C=C(c2ccccc2)SC(c2ccccc2)=C1 [Chemical #2] | 69.0 (2.4) % |  |  |  |  |  |  |  |  |  |  |  |  | MIC [2]: 8 mg/L (≈ 19.3 µM); antibacterial activity (in words) [14]: inhibited the growth of Staphylococcus spp. and Enterococcus spp; also recorded: no activity against other Gram-positive species or any of the Gram-negative pathogens tested; MIC ([3]; ATCC25922, read-out: Minimal inhibitory concentration): > 64 mg/L; MIC ([4]; VRE): > 64 mg/L; MIC ([5]; ATCC10211, read-out: Minimal inhibitory concentration): > 64 mg/L; MIC ([6]; MRSA): 8 mg/L (≈ 19.3 µM); MIC ([7]; ATCC29212, read-out: Minimal inhibitory concentration): 32 mg/L (≈ 77 µM); MIC [8]: 64 mg/L (≈ 154 µM); MIC ([9]; ATCC27853, read-out: Minimal inhibitory concentration): > 64 mg/L; MIC ([10]; ATCC19434, read-out: Minimal inhibitory concentration): > 64 mg/L; MIC ([11]; ATCC13883, read-out: Minimal inhibitory concentration): > 64 mg/L; MIC ([12]; VRE): 32 mg/L (≈ 77 µM); MIC ([13]; ATCC19606, read-out: Minimal inhibitory concentration): > 64 mg/L |
| O=C(NNS(=O)(=O)c1cc(Cl)ccc1Cl)c1cc2c(s1)CCCC2 [Chemical #3] | 68.5 (1.7) % | > 64 | > 64 | > 64 | > 64 | > 64 | > 64 | > 64 | > 64 | > 64 | > 64 | > 64 | > 64 |  |
| C[C@@H](O)[C@H]1C(=O)N2C(C(=O)O)=C(S[C@@H]3CN[C@H](CNS(N)(=O)=O)C3)[C@H](C)[C@H]12 [Doripenem, reference compound] |  | ≤ 0.063 | ≤ 0.063 | 64 (≈ 152 µM) | 0.125 (≈ 0.297 µM) | 16 (≈ 38 µM) | 1 (≈ 2.38 µM) | ≤ 0.063 | 0.5 (≈ 1.19 µM) | 8 (≈ 19 µM) | 0.125 (≈ 0.297 µM) | 8 (≈ 19 µM) | 1 (≈ 2.38 µM) | Minimal inhibitory concentration [2, 15]: ≦0.063 μg/mL |
